Consider 3 compounds from patent US11135185B2, “Uses of curcumin derivative” (Merry Life Biomedical Company, Ltd., priority 2018, dated 2021).

Each structure is given as a SMILES string. Entries after “also recorded” stand apart in the source; their conditions may differ.

One assay deals with soluble Aβ. To be noted: AD transgenic mouse, within hours, ApoE-dependent; cited from earlier work.
Another assay concerns APP. Nature of the assay: Western blotting of APP in Huh-7 cells. The assay is classed as cell-based, human. As to conditions: 24 h treatment, Western blotting (FIG. 1). For orientation: In western blotting, separated proteins are transferred to a membrane and probed.
For a further assay, the system named is phospho-NF-κB. Nature of the assay: Western blotting of phospho-NF-κB in Huh-7 cells. In kind it is cell-based, human. To be noted: 24 h treatment, Western blotting (FIG. 1). As to the method: (§1) The human hepatoma Huh-7 cell lines were obtained from the Health Science Research Resources Bank (JCRB0403; Osaka, Japan) and were cultured in Dulbecco's modified Eagle's medium (DMEM, Gibco) supplemented with 100 U/ml penicillin, […] streptomycin and 10% fetal bovine serum (FBS, Biological industry). Cells were cultured at 37° C. in a humidified atmosphere of 5% CO2 incubator (Forma Scientific, Marietta, Ohio, USA). The cells were seeded in 24-well, 6 or 10 cm dishes overnight the day before the experiment. On the next day, the cells were treated with curcumin (Sigma) and TML-6. The stock concentration was prepared at 5 mg/mL (for curcumin) and 10 mM (for TML-6).
(§2) After cells were seeded and treated with curcumin and its derivatives for 24h, cells were washed with ice-cold PBS and lysed with 100 μL of RIPA lysis buffer (Pierce Biotechnology, Rockford, Ill., USA) supplemented with protease and phosphatase inhibitors (Roche Diagnostics, Mannheim, Germany). Cell lysates were further cleaned by centrifugation at 14000 rpm 4° C. for 15 min. Protein concentration was determined using a Bradford assay (Bio-Rad, Hercules, Calif., USA). For western blot analysis, 20 μg of each sample was prepared for SDS-PAGE and denatured at 95° C. for 10 min. […]

For the next assay, the system named is ApoE. Nature of the assay: Western blotting of ApoE in Huh-7 cells. In kind it is cell-based, human. To be noted: 24 h treatment, Western blotting (FIG. 1). As to the method: as §1, §2
Assay [1] has as its system Aβ production in N2a/APPswe cells. Kind of assay: Amyloid β ELISA of culture medium of N2a/APPswe stable cell line. The assay is classed as cell-based. As to conditions: 24 h incubation, ELISA (FIG. 2). As to the method: Extracellular levels of soluble Aβ40 and Aβ42 were determined by LEGEND MAX™ 3-Amyloid x-40 and X-42 ELISA Kit (Biolegend). N2A neuroblastoma cell line with stably over expressing APP Swedish mutation (APPswe) was designed as N2A/APPswe cell line (kindly grafted from Prof. Kuo, Yu-Min's Lab). 8×10^5 N2A/APPswe cells were seeded on a 6-cm dish. After overnight incubation, the cells were treated with curcumin or TML-6 for 24 h. The culture supernatant was collected and centrifuged at 1,500×g at 4° C. for 5 min to remove cells. The Aβ levels of the culture supernatants of various treatments were assayed according to the manufacture's instrumentations. The samples were detected at OD620 and the calculation of Aβ levels was based on the standard curves of Aβ40 and Aβ42, respectively.
On the technique in general: ELISA stands for enzyme-linked immunosorbent assay.

Another assay deals with ApoE promoter. Nature of the assay: ApoE promoter luciferase reporter assay in Huh-7 cells. In kind it is cell-based, human. As to conditions: for luciferase activity of ApoE promoter: Huh-7, serial truncations of ApoE promoter from -1061/+45 to -154/+45, 24 h (FIG. 3C). The source says: The promoter region of human APOE gene has been identified and published [[…]]. We constructed ApoE promoter region from -1061 +45 in two-steps. The first fragment was amplified using polymerase chain reaction (PCR) by forward primer APOE-[…] ID NO: 1) paired with reverse primer APOE-R-BglII: [NT] ID NO: 2) and was ligated to the pGL3 basic vector (Promega, Madison, Wis., USA) by using Kpn I and Bgl II restriction sites. The second fragment was amplified using PCR by forward primer APOE-F-BglII: [NT] ID NO: 3) paired with reverse primer APOE-[…] ID NO: 4) and was ligated to the pGL3-basic (Promega) by using Bgl II and Hind III restriction sites. The serial deletion mutants of ApoE promoter, -705/+45, -456/+45, -344/+45, -247/+45, -154/+45 and -32/+45 were amplified using PCR and based on the full-length ApoE promoter (-1061/+45). The generated fragments were digested by Kpn I and Xba I and then inserted into the pGL3-basic vector (Promega). To generate the deletion mutants of ApoE promoter, primers were used to amplify the promoter for different lengths. The forward primers were APOE-705-[…] ID NO: 5), APOE-456-[…] ID NO: 6), APOE-344-[…] ID NO: 7), APOE-247-[…] ID NO: 8), APOE-154-[…] ID NO: 9), and APOE-32-[…] ID NO: 10) which were paired with reverse primer APOE-[…] ID NO: 4) to amplify the target region of the promoter. For disrupting the binding sites of PPAR and/or AP-2 on ApoE promoter, we conducted the point mutation method and the primers paired used were as follows: -154[…] ID NO: 11) paired with -154[…] ID NO: 12), -154[…] ID NO: 13) paired with -154[…] ID NO: 14), -154[…] ID NO: 15) paired with -154[…] ID NO: 16), -154[…] ID NO: 17) paired with -154[…] ID NO: 18). The pGL3-154/+45-ApoE-Luc was used as the template for PCR reaction to amplify the mutant of PPAR or AP-2 binding sites in the ApoE promoter. The PCR products were digested by Dpn I and transformed into TOP10 competent cells (Invitrogen, Carlsbad, Calif., USA). After LB plating and extraction of plasmids, positive colonies were confirmed by restriction enzyme digestion. All of the promoter constructs were verified by sequencing. The Huh-7 cells were seeded in 24-well culture plates and then co-transfected with serial deletion of pGL3-ApoE-Luc (firefly luciferase) with pRL-TK renilla luciferase reporter. Following overnight incubation, the transfected cells were treated with traditional curcumin, and TML-6 for an additional 24h. […] The relative luciferase units (RLU) were measured using a luminometer (GLOMAX Multi, Promega). […] The RLUs are expressed as means plus standard deviation of three independent experiments.
(A reporter such as luciferase makes a cellular process visible.)

Assay [2] concerns Aβ levels in the brain of 3×Tg AD transgenic mice. Kind of assay: Aβ immunofluorescence staining of brain sections of 3×Tg-AD transgenic mice. In kind it is in vivo. To be noted: six-month-old 3×Tg AD mice fed 150 mg/kg for four months, immunofluorescence (FIG. 4). The source says:
(§3) Triple-transgenic mice as a model of Alzheimer's disease (3×Tg-AD, APP Swedish, MAPT P301L, and PSEN1 M146V) were bred at the laboratory animal center of National Cheng Kung University (NCKU) [Oddo S, Caccamo A, Shepherd J D, Murphy M P, Golde T E, Kayed R, Metherate R, Mattson M P, Akbari Y, LaFerla F M: Triple-transgenic model of Alzheimer's disease with plaques and tangles: intracellular Abeta and synaptic dysfunction. Neuron 2003, 39(3):409-421]. Experimental procedures for handling the mice were in accordance with the guidelines of the Institutional Animal Care and Use Committee (IACUC) of NCKU. The mice were housed in a room maintained on a 12-h light-dark cycle and fed ad libitum. […] These mice developed plaque and tangle pathology. Aβ deposition as progressive deposition appeared as early as six months.
(§4) Mice were anesthetized and euthanized with 10% chloral hydrate (400 mg/kg, i.p.) and then transcardial perfusion was performed with 0.01 M PBS (pH 7.4). The brains were post-fixed in 4% PFA for 2 days and dehydrated with 30% sucrose at 4° C. The hydrated brain was embedded with optimal cutting temperature compound (OCT, Leica) and quick-frozen at −30° C. The blocks were sectioned at 16 um-thick. Slices were stored at −20° C. […] The images were captured by TissureFAXS microscopy system and positive signals were quantified by TissueQuest software module (TissueGnostic, Vienne, Austria).

The test system of assay [3] is Iba-1 (microglial activation biomarker) in 3×Tg AD transgenic mice. Kind of assay: Iba-1 immunofluorescence staining in 3×Tg-AD transgenic mice. In kind it is in vivo. To be noted: six-month-old 3×Tg AD mice fed 150 mg/kg for four months, compared to curcumin (FIG. 5).
Text: as §3, §4

Turning to `C=C(c1ccc(C(=O)O)cc1)c1cc2c(cc1C)C(C)(C)CCC2(C)C` [bexarotene], the “clearance of soluble Aβ” value in the assay on soluble Aβ was “enhanced clearance”.

With `CCN(CC)C(=O)CC(C)(C(=O)/C=C/c1ccc(OC)c(OC)c1)C(=O)/C=C/c1ccc(OC)c(OC)c1` [TML-6], in the assay on APP, the “protein expression level of APP” value is “decreased in a dose-dependent manner”. The “protein expression level of phospho-NF-κB” value with phospho-NF-κB is on record as “decreased in a dose-dependent manner”. Besides, the “protein expression level of Apo E” value with ApoE is reported as “significantly increased”. Besides, in assay [1], the Aβ42/40 ratio result was “significantly suppresses”, the “production of Aβ40” value is on record as “significantly suppresses” and the “production of Aβ42” value is on record as “significantly suppresses”. Also, in the assay with ApoE promoter (Huh-7, -154/+45 mutants MdelAP2 and MdelPPAR, 24 h (FIG. 3E)), the “ApoE promoter activity after disruption of proximal PPARα/RXRα and AP2 binding sites” value is given as “significantly suppressed”. In addition, in the assay with ApoE promoter, the “luciferase activity of ApoE promoter” value is “gradually increases”. Besides, in the assay with ApoE promoter (Huh-7, siRNA knockdown experiment, 24 h (FIG. 3F)), the “promoter activity of ApoE-154MdelAP2/+45 mutant compared with wild-type -154/+45” value is “suppressed”. Moreover, the “Aβ levels in the brain” value in assay [2] is listed as “significantly better activity than curcumin; also recorded: significantly decrease”. Further, in assay [3], the “expression of Iba-1 (brain inflammation)” value is reported as “significantly better activity than curcumin; also recorded: significantly inhibited”.

For the compound `COc1cc(/C=C/C(=O)CC(=O)/C=C/c2ccc(O)c(OC)c2)ccc1O` [curcumin, diferuloyl methane], in the assay on APP, the “protein expression level of APP” value is listed as “inhibit the APP synthesis”. The “protein expression level of phospho-NF-κB” value with phospho-NF-κB was “inhibit NFκB”. For the same compound, in the assay on ApoE, the “protein expression level of Apo E” value is given as “upregulate ApoE”. Besides, the “luciferase activity of ApoE promoter” value in the assay on ApoE promoter was “gradually increases”.
